This passage reports CC50 and EC50 results from patent US20210395262A1, “INHIBITORS OF HUMAN IMMUNODEFICIENCY VIRUS REPLICATION” (ViiV HEALTHCARE UK (NO.5) LIMITED, priority 2018, published 2021).

Data set [1] is described as follows: Compound cytotoxicity, XTT-based colorimetric assay. It is filed as cell-based. The following applies: human; uninfected MT2 cells, day 4, XTT; read-out: CC50. Summed up:
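Run under the antiviral-assay protocol but without virus. Viability was read on day 4 and CC50 values were derived from the readout.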
In general terms: Formazan colour is commonly taken as a measure of viable cells.

In data set [2] the test system is recombinant NL4-3 virus. In words: HIV cell culture assay (antiviral activity, luciferase readout in MT-2 cells). It is filed as cell-based. As to conditions: Human immunodeficiency virus 1, NL43, MT2. Summed up: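 MT-2 cells infected for 4-5 days with NL4-3 reference virus carrying Renilla luciferase in place of part of nef, in presence of serial compound dilutions. Luciferase activity read with live-cell substrate. EC50 derived from median effect equation, slope parameter m.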

In general, CC50 refers to the concentration giving 50% cytotoxicity. Broadly, the EC50 is the midpoint of the concentration-response curve. As for `C[C@@H]1CN(c2ccc3c(=O)n(-c4ccc(Cl)c5c(NS(C)(=O)=O)nn(CC(F)F)c45)c([C@H](Cc4cc(F)cc(F)c4)NC(=O)Cn4ccc(C5CCC5)n4)nc3c2)C[C@H](C)O1` (atropisomer, axis not shown; (P)) [Example 50, N—((S)-1-((3P)-3-(4-chloro-1-(2,2-difluoroethyl)-3-(methylsulfonamido)-1H-indazol-7-yl)-7-((2S,6R)-2,6-dimethylmorpholino)-4-oxo-3,4-dihydroquinazolin-2-yl)-2-(3,5-difluorophenyl)ethyl)-2-(3-cyclobutyl-1H-pyrazol-1-yl)acetamide], the cytotoxic concentration (CC50) at 4 days in data set [1] is greater than 500 nM. In addition, the EC50 in data set [2] was determined as 0.91 nM.

For `O=C(Cn1nc(C(F)F)cc1C(F)F)N[C@@H](Cc1cc(F)cc(F)c1)c1nc2cc(N3CCOCC3)ccc2c(=O)n1-c1ccc(Cl)c2c(NS(=O)(=O)C3CC3)nn(CC(F)F)c12` (atropisomer, axis not shown; (P)) [Example 36, (S)-2-(3,5-bis(difluoromethyl)-1H-pyrazol-1-yl)-N-(1-((3P)-3-(4-chloro-3-(cyclopropanesulfonamido)-1-(2,2-difluoroethyl)-1H-indazol-7-yl)-7-morpholino-4-oxo-3,4-dihydroquinazolin-2-yl)-2-(3,5-difluorophenyl)ethyl)acetamide], in data set [1], the CC50 at 4 days is greater than 1000 nM. Further, the EC50 in data set [2] worked out at 2.31 nM.

`CC(C(=O)N[C@@H](Cc1cc(F)cc(F)c1)c1nc2cc(N3C[C@@H](C)O[C@@H](C)C3)ccc2c(=O)n1-c1ccc(Cl)c2c(NS(C)(=O)=O)nn(CC(F)F)c12)n1nc(C(F)(F)F)cc1C1CC1` (some centres unmarked) [Example 55]: the CC50 at 4 days in data set [1] was greater than 500 nM. The EC50 in data set [2] was found to be 4.3 nM.

For the compound `Cn1nc(NS(C)(=O)=O)c2c(Cl)ccc(-n3c([C@H](Cc4cc(F)cc(F)c4)NC(=O)Cn4nc(C(F)F)c5c4C(F)(F)[C@@H]4C[C@H]54)nc4cc(N5CCC(C)(C)CC5)ccc4c3=O)c21` (atropisomer, axis not shown; (P)) [Example 1, N—((S)-1-((3P)-3-(4-chloro-1-methyl-3-(methylsulfonamido)-1H-indazol-7-yl)-7-(4,4-dimethylpiperidin-1-yl)-4-oxo-3,4-dihydroquinazolin-2-yl)-2-(3,5-difluorophenyl)ethyl)-2-((3bS,4aR)-3-(difluoromethyl)-5,5-difluoro-3b,4,4a,5-tetrahydro-1H-cyclopropa[3,4]cyclopenta[1,2-c]pyrazol-1-yl)acetamide], in data set [1], the half-maximal cytotoxic concentration (CC50) at 4 days is greater than 500 nM. Also, the EC50 in data set [2] stood at 0.796 nM.

On to `Cn1nc(NS(C)(=O)=O)c2c(Cl)ccc(-n3c([C@H](Cc4cc(F)cc(F)c4)NC(=O)Cn4nc(C(F)F)c5c4C(F)(F)[C@@H]4C[C@H]54)nc4cc(NCC(F)F)ccc4c3=O)c21` (atropisomer, axis not shown; (P)) [Example 41, N—((S)-1-((3P)-3-(4-chloro-1-methyl-3-(methylsulfonamido)-1H-indazol-7-yl)-7-((2,2-difluoroethyl)amino)-4-oxo-3,4-dihydroquinazolin-2-yl)-2-(3,5-difluorophenyl)ethyl)-2-((3bS,4aR)-3-(difluoromethyl)-5,5-difluoro-3b,4,4a,5-tetrahydro-1H-cyclopropa[3,4]cyclopenta[1,2-c]pyrazol-1-yl)acetamide], for which the half-maximal cytotoxic concentration (CC50) at 4 days in data set [1] was greater than 1000 nM. The EC50 in data set [2] came to 0.174 nM.

On to `COC1CCN(c2ccc3c(=O)n(-c4ccc(Cl)c5c(NS(C)(=O)=O)nn(C)c45)c([C@H](Cc4cc(F)cc(F)c4)NC(=O)Cn4nc(C(F)F)c5c4C(F)(F)[C@@H]4C[C@H]54)nc3c2)CC1` (atropisomer, axis not shown; (P)) [Example 28, N—((S)-1-((3P)-3-(4-chloro-1-methyl-3-(methylsulfonamido)-1H-indazol-7-yl)-7-(4-methoxypiperidin-1-yl)-4-oxo-3,4-dihydroquinazolin-2-yl)-2-(3,5-difluorophenyl)ethyl)-2-((3bS,4aR)-3-(difluoromethyl)-5,5-difluoro-3b,4,4a,5-tetrahydro-1H-cyclopropa[3,4]cyclopenta[1,2-c]pyrazol-1-yl)acetamide], for which, in data set [1], the CC50 at 4 days is greater than 500 nM. Besides, the EC50 in data set [2] came out at 0.12 nM.

`Cc1cc(C(F)F)nn1C(C)C(=O)N[C@@H](Cc1cc(F)cc(F)c1)c1nc2cc(N3C[C@@H](C)O[C@@H](C)C3)ccc2c(=O)n1-c1ccc(Cl)c2c(NS(C)(=O)=O)nn(CC(F)F)c12` (stereo partly drawn) [Example 51, N—((S)-1-((3P)-3-(4-chloro-1-(2,2-difluoroethyl)-3-(methylsulfonamido)-1H-indazol-7-yl)-7-((2S,6R)-2,6-dimethylmorpholino)-4-oxo-3,4-dihydroquinazolin-2-yl)-2-(3,5-difluorophenyl)ethyl)-2-(3-(difluoromethyl)-5-methyl-1H-pyrazol-1-yl)propanamide]: the CC50 at 4 days in data set [1] is greater than 500 nM. In addition, the concentration for a half-maximal effect (EC50) in data set [2] is 1.9 nM.

Regarding `C[C@@H]1CN(c2ccc3c(=O)n(-c4ccc(Cl)c5c(NS(C)(=O)=O)nn(CC(F)F)c45)c([C@H](Cc4cc(F)cc(F)c4)NC(=O)Cn4ccc(C(C)(C)C)n4)nc3c2)C[C@H](C)O1` (atropisomer, axis not shown; (P)) [Example 49, 2-(3-(tert-butyl)-1H-pyrazol-1-yl)-N—((S)-1-((3P)-3-(4-chloro-1-(2,2-difluoroethyl)-3-(methylsulfonamido)-1H-indazol-7-yl)-7-((2S,6R)-2,6-dimethylmorpholino)-4-oxo-3,4-dihydroquinazolin-2-yl)-2-(3,5-difluorophenyl)ethyl)acetamide], the CC50 at 4 days in data set [1] is greater than 500 nM. In addition, in data set [2], the EC50 turned out to be 2.7 nM.

As to `Cn1nc(NS(C)(=O)=O)c2c(Cl)ccc(-n3c([C@H](Cc4cc(F)cc(F)c4)NC(=O)Cn4nc(C(F)F)c5c4C(F)(F)[C@@H]4C[C@H]54)nc4cc(N5CCC6(CCC6)CC5)ccc4c3=O)c21` (atropisomer, axis not shown; (P)) [Example 34, N—((S)-1-((3P)-3-(4-chloro-1-methyl-3-(methylsulfonamido)-1H-indazol-7-yl)-4-oxo-7-(7-azaspiro[3.5]nonan-7-yl)-3,4-dihydroquinazolin-2-yl)-2-(3,5-difluorophenyl)ethyl)-2-((3bS,4aR)-3-(difluoromethyl)-5,5-difluoro-3b,4,4a,5-tetrahydro-1H-cyclopropa[3,4]cyclopenta[1,2-c]pyrazol-1-yl)acetamide], the CC50 at 4 days in data set [1] was greater than 1000 nM. Also, in data set [2], the half-maximal effective concentration (EC50) stood at 2.81 nM.

With `O=C(Cn1nc(C(F)F)cc1C1CC1)N[C@@H](Cc1cc(F)cc(F)c1)c1nc2cc(N3CCOCC3)ccc2c(=O)n1-c1ccc(Cl)c2c(NS(=O)(=O)C3CC3)nn(CC(F)F)c12` (atropisomer, axis not shown; (P)) [Example 40, (S)—N-(1-((3P)-3-(4-chloro-3-(cyclopropanesulfonamido)-1-(2,2-difluoroethyl)-1H-indazol-7-yl)-7-morpholino-4-oxo-3,4-dihydroquinazolin-2-yl)-2-(3,5-difluorophenyl)ethyl)-2-(5-cyclopropyl-3-(difluoromethyl)-1H-pyrazol-1-yl)acetamide], the CC50 at 4 days in data set [1] is greater than 1000 nM. The EC50 in data set [2] turned out to be 0.361 nM.
